According to patent publication US20230338370A1, “Treatment of Cancer with TOR Kinase Inhibitors” (Signal Pharmaceuticals, LLC, priority 2012, published 2023):

Assays:
MDA-MB-231 tumors = assay: MDA-MB-231 Triple Negative (TN) Breast Cancer Model (xenograft); type: in vivo; details: nude mice, subcutaneous MDA-MB-231 xenograft; oral QD for up to 26 days, 1 to 5 mg/kg
Protocol: A xenograft study was conducted with MDA-MB-231 tumor-bearing mice. Nude mice were inoculated subcutaneously with MDA-MB-231 cells in the flank region above the right hind leg. Following inoculation of animals, the tumors were allowed to grow to about 150 mm^3 prior to randomization. On Day 38 following tumor cell inoculation, the mice bearing MDA-MB-231 tumors ranging between 65 and 304 mm^3 were pooled together and randomized into various treatment groups. […] The positive control Taxotere (15 mg/kg, Q4D) was administered via the intravenous (IV) route. Taxotere was diluted in saline. Tumors were measured twice a week using calipers and tumor volumes were calculated using the formula of W2 × L / 2 (wherein “W” is tumor width and “L” is tumor length).

MT-3 = assay: Growth inhibition assay for Breast Cancer (BC) Cell lines; type: cell-based; details: MT-3, TN; 96 hours, Cell Titer-Glo
Protocol: (§1) Growth inhibition assay for Breast Cancer (BC) Cell lines. Compounds 1 (a TOR kinase inhibitor set forth herein having molecular formula C16H16N8O) and 2 (a TOR kinase inhibitor set forth herein having molecular formula C17H18N8O2) were dissolved in dimethyl sulfoxide (DMSO) to prepare a 10 mM stock solution. A serial titration was performed to produce a working concentration range of 1.5 µM to 10 mM. Aliquots to produce final concentrations of 1.5 nM to 10 µM were spotted via an acoustic dispenser (EDC ATS-100) into an empty 384-well plate. Compounds 1 and 2 were spotted in a 10-point serial dilution fashion (3-fold dilution) in duplicate within the plate. The DMSO concentration was kept constant for a final assay concentration of 0.1% DMSO. Plates were replicated for use with different cell lines and testing periods. After compound plate replication, all plates were sealed (Agilent ThermoLoc) and stored at -20° C. for up to 1 month. […] When ready for testing, plates were removed from the freezer, thawed, and unsealed just prior to the addition of the test cells. Prior to testing, cells were grown and expanded in culture flasks to provide sufficient amounts of starting material. Cells were then diluted to the appropriate densities and added directly to the compound-spotted 384-well plates. Cells were allowed to grow for 96 hours at 37° C./5% CO2. At the time when compound was added (t0), initial cell number was assessed via a viability assay (Cell Titer-Glo) by quantifying the level of luminescence generated by ATP present in viable cells. After 96 hours, cell viability of compound-treated cells was assessed via Cell Titer-Glo and luminescence measurement. Cell lines were assayed for growth inhibition by Compounds 1 and 2 in at least 3 independent tests. A control cell line (the lung tumor cell line, A549) was included in each of the assays. The compound response against this control cell line was monitored closely to enable comparison of the data generated through the assay period. All data were normalized and presented as a percentage of the DMSO-treated cells. Results were then expressed as a GI50 value. The GI50 value corrects for the cell count at time zero.

HCC1937 = assay: as above; type: cell-based; details: Homo sapiens; HCC1937, TN; 96 hours, Cell Titer-Glo
Protocol: as §1

MDA-MB-436 = assay: as above; type: cell-based; details: Homo sapiens; MDA-MB-436, TN; 96 hours, Cell Titer-Glo
Protocol: as §1

CAL-148 = assay: as above; type: cell-based; details: Homo sapiens; CAL-148, TN; 96 hours, Cell Titer-Glo
Protocol: as §1

CAL-85-1 = assay: as above; type: cell-based; details: Homo sapiens; CAL-85-1, TN; 96 hours, Cell Titer-Glo
Protocol: as §1

HDQ-P1 = assay: as above; type: cell-based; details: Homo sapiens; HDQ-P1, TN; 96 hours, Cell Titer-Glo
Protocol: as §1

HCC2157 = assay: as above; type: cell-based; details: Homo sapiens; HCC2157, TN; 96 hours, Cell Titer-Glo
Protocol: as §1

MB157 = assay: as above; type: cell-based; details: MB157, TN; 96 hours, Cell Titer-Glo
Protocol: as §1

CAL-120 = assay: as above; type: cell-based; details: Homo sapiens; CAL-120, TN; 96 hours, Cell Titer-Glo
Protocol: as §1

HCC1806 = assay: as above; type: cell-based; details: Homo sapiens; HCC1806, TN; 96 hours, Cell Titer-Glo
Protocol: as §1

HCC38 = assay: as above; type: cell-based; details: Homo sapiens; HCC38, TN; 96 hours, Cell Titer-Glo
Protocol: as §1

MDA-MB-231 = assay: as above; type: cell-based; details: Homo sapiens; MDA-MB-231, TN; 96 hours, Cell Titer-Glo
Protocol: as §1

MDA-MB-468 = assay: as above; type: cell-based; details: Homo sapiens; MDA-MB-468, TN; 96 hours, Cell Titer-Glo
Protocol: as §1

HCC1187 = assay: as above; type: cell-based; details: Homo sapiens; HCC1187, TN; 96 hours, Cell Titer-Glo
Protocol: as §1

BT-20 = assay: as above; type: cell-based; details: Homo sapiens; BT-20, TN; 96 hours, Cell Titer-Glo
Protocol: as §1

DU4475 = assay: as above; type: cell-based; details: Homo sapiens, DU-4475; DU4475, TN; 96 hours, Cell Titer-Glo
Protocol: as §1

HCC1143 = assay: as above; type: cell-based; details: Homo sapiens; HCC1143, TN; 96 hours, Cell Titer-Glo
Protocol: as §1

CAL-51 = assay: as above; type: cell-based; details: Homo sapiens; CAL-51, TN; 96 hours, Cell Titer-Glo
Protocol: as §1

GI50 (MT-3): 150 nM | GI50 (HCC1937): 161 nM | GI50 (MDA-MB-436): 279 nM | GI50 (CAL-148): 187 nM | GI50 (CAL-85-1): 88.8 nM | GI50 (HDQ-P1): 162 nM | GI50 (HCC2157): 51.5 nM | GI50 (MB157): 346 nM | GI50 (CAL-120): 182 nM | GI50 (HCC1806): 187 nM | GI50 (HCC38): 430 nM | GI50 (MDA-MB-231): 185 nM | GI50 (MDA-MB-468): 87.2 nM | GI50 (HCC1187): 195 nM | GI50 (BT-20): 116 nM | GI50 (DU4475): 237 nM | GI50 (HCC1143): 400 nM | GI50 (CAL-51): 71 nM
Compound: CCN1C(=O)CNc2ncc(-c3ccc(-c4nc[nH]n4)nc3C)nc21 [Compound 1, 1-ethyl-7-(2-methyl-6-(1H-1,2,4-triazol-3-yl)pyridin-3-yl)-3,4-dihydropyrazino[2,3-b]pyrazin-2(1H)-one]
tumor growth (MDA-MB-231 tumors): inhibited MDA-MB-231 breast cancer tumor growth
